In one test the target is KRAS G12D (Homo sapiens, UniProt P01116, G12D). Description: GDP-GTP exchange assay (bodipy-GDP/GppNHp, SOS1), KRAS G12D. In kind it is biochemical. Conditions: bodipy-loaded KRAS G12D 2.5 nM, 4 hours pre-incubation with inhibitor, 2 hours after GppNHp/SOS1; read-out: G12D_exchange IC50. Here is the method:
(§1) The inhibitor potency of the exemplified compounds was determined in a fluorescence based guanine nucleotide exchange assay, which measures the exchange of bodipy-GDP (fluorescently labeled GDP) for GppNHp (Non-hydrolyzable GTP analog) to generate the active state of KRAS in the presence of SOS1 (guanine nucleotide exchange factor). Inhibitors were serially diluted in DMSO and a volume of 0.1 μL was transferred to the wells of a black low volume 384-well plate. 5 μL/well volume of bodipy-loaded KRAS G12D diluted to 2.5 nM in assay buffer (25 mM Hepes pH 7.5, 50 mM NaCl, 10 mM MgCl2 and 0.01% Brij-35) was added to the plate and pre-incubated with inhibitor for 4 hours at ambient temperature. Appropriate controls (enzyme with no inhibitor or with a G12D inhibitor) were included on the plate. The exchange was initiated by the addition of a 5 μL/well volume containing 1 mM GppNHp and 300 nM SOS1 in assay buffer. The 10 μL/well reaction concentration of the bodipy-loaded KRAS G12D, GppNHp, and SOS1 were 2.5 nM, 500 uM, and 150 nM, respectively. The reaction plates were incubated at ambient temperature for 2 hours, a time estimated for complete GDP-GTP exchange in the absence of inhibitor. For the KRAS G12V mutant, similar guanine nucleotide exchange assays were used with 2.5 nM as final concentration for the bodipy loaded KRAS proteins and 3 hours incubation after adding GppNHp-SOS1 mixture. A cyclic peptide described to selectively bind G12D mutant (Sakamoto et al., BBRC 484.3 (2017), 605-611) or internal compounds with confirmed binding were used as positive controls in the assay plates. Fluorescence intensities were measured on a PheraStar plate reader instrument (BMG Labtech) with excitation at 485 nm and emission at 520 nm.
(§2) Either GraphPad prism or Genedata Screener SmartFit was used to analyze the data. The IC50 values were derived by fitting the data to a four parameter logistic equation producing a sigmoidal dose-response curve with a variable Hill coefficient.
(§3) The symbol “†” indicates IC50≤100 nM, “††” indicates IC50>100 nM but ≤1 μM; and “†††” indicates IC50 is >1 μM but ≤5 μM, “††††” indicates IC50 is >5 μM but ≤10 μM. “NA” indicates IC50 not available.

The next test deals with KRAS. Description: Inhibition of KRAS activity, assay not specified (at least one assay described herein). Particulars: remark in the synthesis example, assay not named. The text has this:
The invention will be described in greater detail by way of specific examples. The following examples are offered for illustrative purposes, and are not intended to limit the invention in any manner. Those of skill in the art will readily recognize a variety of non-critical parameters which can be changed or modified to yield essentially the same results.

Another test concerns the target KRAS G12V (Homo sapiens, UniProt P01116, G12V). Description: GDP-GTP exchange assay (bodipy-GDP/GppNHp, SOS1), KRAS G12V. In kind it is biochemical. Conditions: bodipy-loaded KRAS G12V 2.5 nM, 3 hours incubation after adding GppNHp-SOS1; read-out: G12V_exchange IC50. Here is the method: as §1, §2, §3

SMILES strings stand for the structures. Where only a bound is given, the exact number is not on record here.

Chain of KRAS G12D (P01116 1-188 isoform P01116-2 G12D): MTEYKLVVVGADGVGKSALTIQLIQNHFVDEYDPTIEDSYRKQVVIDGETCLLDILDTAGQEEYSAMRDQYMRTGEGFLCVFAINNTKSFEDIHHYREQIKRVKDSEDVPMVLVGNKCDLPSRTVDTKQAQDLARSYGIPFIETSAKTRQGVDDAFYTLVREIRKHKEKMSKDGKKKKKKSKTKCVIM
Chain of KRAS G12V (P01116 1-188 isoform P01116-2 G12V): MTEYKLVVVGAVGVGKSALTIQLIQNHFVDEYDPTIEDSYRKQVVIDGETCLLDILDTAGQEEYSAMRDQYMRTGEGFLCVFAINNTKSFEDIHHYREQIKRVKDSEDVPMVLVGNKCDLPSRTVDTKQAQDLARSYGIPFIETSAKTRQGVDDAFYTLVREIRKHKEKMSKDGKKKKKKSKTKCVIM

Take `CCc1nc2c(-c3cc(C(=O)NC)ccc3F)nc3c(F)c(-c4cc(O)cc5ccccc45)c(CCC#N)cc3c2n1C1C2CNC1C2` (single isomer, unassigned) [Example 17a, 3-(1-((endo)-2-Azabicyclo[2.1.1]hexan-5-yl)-8-(2-cyanoethyl)-2-ethyl-6-fluoro-7-(3-hydroxynaphthalen-1-yl)-1H-imidazo[4,5-c]quinolin-4-yl)-4-fluoro-N-methylbenzamide]: the IC50 on KRAS G12D and on KRAS G12V was at most 100 nM each time. Further, the “potency of isolated peak relative to the other diastereomer” value with KRAS is reported as “More potent peak”.
Consider `CC(=O)N1CC[C@H](n2cnc3c(O[C@@H](C)[C@@H]4CCCN4C)nc4c(F)c(-c5cccc6cccc(C#N)c56)c(Cl)cc4c32)C[C@H]1CC#N` (single isomer, unassigned) [Example 39b], for which the IC50 on KRAS G12D and on KRAS G12V was at most 100 nM throughout. Also, in the test on KRAS, the “potency of isolated peak relative to the other diastereomer” value was “potent peak”.
As to `CN(C)C1CN(c2nc3c(F)c(-c4cc(O)cc5ccccc45)c(CCC#N)cc3c3c2nc(-c2cn(C4CCNCC4)nn2)n3C2C3CNC2C3)C1` (single isomer, unassigned) [Example 26a, 3-(1-((endo)-2-Azabicyclo[2.1.1]hexan-5-yl)-4-(3-(dimethylamino)azetidin-1-yl)-6-fluoro-7-(3-hydroxynaphthalen-1-yl)-2-(1-(piperidin-4-yl)-1H-1,2,3-triazol-4-yl)-1H-imidazo[4,5-c]quinolin-8-yl)propanenitrile], the IC50 at KRAS G12D and at KRAS G12V was at most 100 nM each time.
In the case of `CCc1nc2c(OC[C@@]34CCCN3C[C@H](F)C4)nc3c(F)c(-c4c[nH]c5ccc(C)cc45)c(CCC#N)cc3c2n1C1C2CNC1C2` (stereo partly drawn) [Example 28, 3-(1-(2-azabicyclo[2.1.1]hexan-5-yl)-2-ethyl-6-fluoro-4-(((2R,7aS)-2-fluorotetrahydro-1H-pyrrolizin-7a(5H)-yl)methoxy)-7-(5-methyl-1H-indol-3-yl)-1H-imidazo[4,5-c]quinolin-8-yl)propanenitrile], the IC50 (in general, the concentration needed to halve the response being measured) at KRAS G12D is at most 100 nM; at KRAS G12V, 100 to 1000 nM.
In the same order, the values of `CCn1ccc(-c2nc3c(N4CC(N(C)C)C4)nc4c(F)c(-c5cc(O)cc6ccccc56)c(CCC#N)cc4c3n2C2C3CNC2C3)n1` (single isomer, unassigned) [Example 35a, 3-(1-((endo)-2-azabicyclo[2.1.1]hexan-5-yl)-4-(3-(dimethylamino)azetidin-1-yl)-2-(1-ethyl-1H-pyrazol-3-yl)-6-fluoro-7-(3-hydroxynaphthalen-1-yl)-1H-imidazo[4,5-c]quinolin-8-yl)propanenitrile] are at most 100 nM and at most 100 nM.
For `CN(C)C1CN(c2nc3c(F)c(-c4cc(O)cc5ccccc45)c(CCC#N)cc3c3c2nc(-c2ccn(Cc4ccccc4)n2)n3C2C3CNC2C3)C1` (single isomer, unassigned) [Example 36a, 3-(2-(1-benzyl-1H-pyrazol-3-yl)-1-((endo)-2-azabicyclo[2.1.1]hexan-5-yl)-4-(3-(dimethylamino)azetidin-1-yl)-6-fluoro-7-(3-hydroxynaphthalen-1-yl)-1H-imidazo[4,5-c]quinolin-8-yl)propanenitrile] the same measures were 100 to 1000 nM and at most 100 nM.
`CCc1nc2c(-c3ccnc(N4CCN(C)CC4)c3)nc3c(F)c(-c4cc(O)cc5ccccc45)c(CCC#N)cc3c2n1C1C2CNC1C2` (single isomer, unassigned) [Example 22a, 3-(1-((endo)-2-Azabicyclo[2.1.1]hexan-5-yl)-2-ethyl-6-fluoro-7-(3-hydroxynaphthalen-1-yl)-4-(2-(4-methylpiperazin-1-yl)pyridin-4-yl)-1H-imidazo[4,5-c]quinolin-8-yl)propanenitrile]: the IC50 on KRAS G12D was at most 100 nM; at KRAS G12V, 100 to 1000 nM.
In the same order, the values of `CN(C)C(=O)CCc1nc2c(N3CC(N(C)C)C3)nc3c(F)c(-c4c(O)ccc(Cl)c4Cl)c(CCC#N)cc3c2n1C1C2CNC1C2` (centres unmarked) [Example 10, 3-(1-(2-azabicyclo[2.1.1]hexan-5-yl)-8-(2-cyanoethyl)-7-(2,3-dichloro-6-hydroxyphenyl)-4-(3-(dimethylamino)azetidin-1-yl)-6-fluoro-1H-imidazo[4,5-c]quinolin-2-yl)-N,N-dimethylpropanamide] are at most 100 nM and 100 to 1000 nM.
For `CCc1nc2c(Oc3ccccc3)nc3c(F)c(-c4cc(O)cc5ccccc45)c(CCC#N)cc3c2n1C1C2CNC1C2` (single isomer, unassigned) [Example 24a, 3-(1-((endo)-2-Azabicyclo[2.1.1]hexan-5-yl)-2-ethyl-6-fluoro-7-(3-hydroxynaphthalen-1-yl)-4-phenoxy-1H-imidazo[4,5-c]quinolin-8-yl)propanenitrile] the same measures were at most 100 nM and 100 to 1000 nM.
For `CCc1nc2c(N3CC(N(C)C)C3)nc3c(F)c(-c4cc(O)cc5ccccc45)c(-c4cnco4)cc3c2n1C1C2CNC1C2` (single isomer, unassigned) [Example 6a, 4-(1-((endo)-2-azabicyclo[2.1.1]hexan-5-yl)-4-(3-(dimethylamino)azetidin-1-yl)-2-ethyl-6-fluoro-8-(oxazol-5-yl)-1H-imidazo[4,5-c]quinolin-7-yl)naphthalen-2-ol] the same measures were 100 to 1000 nM and 5000 to 10000 nM.
Turning to `CN(C)C1CN(c2nc3c(F)c(-c4cc(O)cc5ccccc45)c(CCC#N)cc3c3c2nc(-c2ccc4[nH]ncc4c2)n3C2C3CNC2C3)C1` (single isomer, unassigned) [Example 38a], the results for the IC50 at KRAS G12D and at KRAS G12V were 100 to 1000 nM and at most 100 nM, respectively.
For `CCc1nc2c(-c3ccn4ncnc4c3)nc3c(F)c(-c4cc(O)cc5ccccc45)c(CCC#N)cc3c2n1C1C2CNC1C2` (single isomer, unassigned) [Example 21a, 3-(4-([1,2,4]Triazolo[1,5-a]pyridin-7-yl)-1-((endo)-2-azabicyclo[2.1.1]hexan-5-yl)-2-ethyl-6-fluoro-7-(3-hydroxynaphthalen-1-yl)-1H-imidazo[4,5-c]quinolin-8-yl)propanenitrile] the same measures were at most 100 nM and at most 100 nM.
Take `C[C@H](Oc1nc2c(F)c(-c3cccc4cccc(C#N)c34)c(Cl)cc2c2c1ncn2[C@H]1CCN(C(=O)CC#N)[C@H](CC#N)C1)[C@@H]1CCCN1C` [Example 40, 8-(8-chloro-1-((2S,4S)-1-(2-cyanoacetyl)-2-(cyanomethyl)piperidin-4-yl)-6-fluoro-4-((S)-1-((S)-1-methylpyrrolidin-2-yl)ethoxy)-1H-imidazo[4,5-c]quinolin-7-yl)-1-naphthonitrile]: the IC50 at KRAS G12D and at KRAS G12V was at most 100 nM in each case.
For the compound `CCc1nc2c(N3CC(N(C)C)C3)nc3c(F)c(-c4cc(O)cc5ccccc45)c(C(CC#N)n4cccn4)cc3c2n1C1C2CNC1C2` (single isomer, unassigned) [Example 7a, 3-(1-((endo)-2-azabicyclo[2.1.1]hexan-5-yl)-4-(3-(dimethylamino)azetidin-1-yl)-2-ethyl-6-fluoro-7-(3-hydroxynaphthalen-1-yl)-1H-imidazo[4,5-c]quinolin-8-yl)-3-(1H-pyrazol-1-yl)propanenitrile], the IC50 is at most 100 nM on KRAS G12D and 100 to 1000 nM at KRAS G12V.
For `CN(C)C(=O)CCc1nc2c(N3CC(N(C)C)C3)nc3c(F)c(-c4cccc5c4CC(F)(F)CC5)c(CCC#N)cc3c2n1[C@@H]1[C@@H]2CN[C@H]1C2` (relative stereo) [Example 33, 3-(1-endo-(2-azabicyclo[2.1.1]hexan-5-yl)-8-(2-cyanoethyl)-7-(7,7-difluoro-5,6,7,8-tetrahydronaphthalen-1-yl)-4-(3-(dimethylamino)azetidin-1-yl)-6-fluoro-1H-imidazo[4,5-c]quinolin-2-yl)-N,N-dimethylpropanamide] the same measures were at most 100 nM and 1000 to 5000 nM.
